Target: T1, human MC4 receptor (Homo sapiens, UniProt P32245)
T1 construct: purchased BioLinks K.K; host or cells: HEK-293 cell membranes
Assay: Test for binding to MC4 receptor
Conditions: HEK-293 cell membranes expressing the human MC4 receptor; [125I]Nle4-D-Phe7-α-MSH 0.2 nM; 25° C. for 120 minutes
Experimental: The test for binding to MC4 receptor was carried out according to the method as described in Pharmacology & Toxicology, 79, 161-165, 1996. HEK-293 cell membranes expressing the human MC4 receptor were purchased from BioLinks K.K. The cell membranes were homogenized in a 50 mM Tris-hydrochloric buffer (pH 7.4) containing 2 mM ethylenediaminetetraacetic acid, 10 mM calcium chloride and 100 μM phenymethylsulfonyl fluoride. The homogenate was centrifuged at 48,000×g at 4° C. for 20 minutes. The precipitate obtained by centrifugation was re-homogenized in the same buffer, and then the homogenate was centrifuged at 48,000×g at 4° C. for 20 minutes. This manipulation was repeated twice. The precipitates were suspended in a 50 mM Tris-hydrochloric acid buffer (pH 7.4) containing 2 mM ethylenediaminetetraacetic acid, 10 mM calcium chloride, 100 μM phenymethylsulfonyl fluoride and 0.1% bovine serum albumin so as to provide a protein concentration of 100 μg/ml. The suspension was used for the binding test as a crude membrane specimen. The crude membrane specimen (0.25 ml, 25 μg protein) was allowed to react with [^125I]Nle^4-D-Phe^7-α-MSH (final concentration of 0.2 nM) at 25° C. for 120 minutes. […] Radioactivity on the filter papers was measured using a γ-counter. […] IC50 value was calculated from inhibition curve at concentrations of from 10^−8 to 10^−5.

T1 sequence (P32245 whole entry): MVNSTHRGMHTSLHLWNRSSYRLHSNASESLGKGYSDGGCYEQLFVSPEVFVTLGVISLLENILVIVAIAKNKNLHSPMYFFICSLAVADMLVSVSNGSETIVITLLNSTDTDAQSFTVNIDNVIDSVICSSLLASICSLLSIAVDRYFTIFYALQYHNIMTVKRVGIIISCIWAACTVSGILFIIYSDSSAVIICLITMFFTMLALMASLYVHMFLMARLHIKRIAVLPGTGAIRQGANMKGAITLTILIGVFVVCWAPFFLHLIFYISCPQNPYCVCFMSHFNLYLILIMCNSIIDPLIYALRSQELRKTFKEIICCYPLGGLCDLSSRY

Question: With `CC(C)N1CCN(C(CN2CCN(CCCc3sc(-c4ccccc4)nc3-c3ccccc3)CC2)c2ccc(F)cc2)CC1` (stereo not shown) [Compound 86] as the compound, how does the IC50 read?
Answer: 162 nM

— US20060084657A1, “Piperazine derivative” (priority 2001, published 2006)
